Results from publication PMC9775652, “Concomitant Administration of Red Ginseng Extract with Lactic Acid Bacteria Increases the Plasma Concentration of Deglycosylated Ginsenosides in Healthy Human Subjects” (Biomolecules, 2022).
Where two headings read alike, the source gives them in different places.

Legend:
[1] = system: LAB; assay: In vitro RGE fermentation with LAB; assay type: in vitro ADME
Procedure: To identify the effects of LAB on ginsenoside metabolism, an in vitro fermentation study was performed according to the method of Jeon et al., with slight modifications. Briefly, RGE (10 mL, 1 pouch) and 2 g LAB (containing 1 billion CFU) were suspended in 10 mL autoclaved MRS broth (550 mg broth powder dissolved in 10 mL water). For the 15 ginsenosides, individual ginsenosides (10 μM each) and 2 g of LAB were suspended in 20 mL of autoclaved MRS broth (550 mg broth powder dissolved in 20 mL water). The mixture was incubated for 7 days in a shaking incubator at 37 °C and 300 rpm, and a 0.1 mL aliquot of the incubation mixture was collected on days 0, 3, 5, and 7. The incubation medium was diluted 100-fold with distilled water and stored at −80 °C to analyze ginsenosides using the LC-MS/MS system.
To measure the metabolic activity of ginsenosides, the formation rate of ginsenosides (pmol/day) was calculated by dividing the slope of the regression line by the amount of deglycosylated ginsenosides versus the incubation time plot by the initial concentration of individual ginsenosides.

[2] = Transport (permeability) of ginsenosides in CaCo-2 cell monolayers; assay type: in vitro ADME; details: human
Procedure: (§1) CaCo-2 cells (passage no 41–43) were seeded onto collagen-coated permeable support (1.0 μm pore size) in a 24-well plate at a density of 2.5 × 10^4 cells/insert and cultured for 21 days in Dulbecco’s modified eagle’s medium supplemented with 10% fetal bovine serum, 1% non-essential amino acids, and 1% penicillin-streptomycin at 37 °C in a humidified atmosphere (5% CO2/95% air). After confirming that the transepithelial electrical resistance (TEER) of the CaCo-2 cell monolayer was over 400 Ω·cm^2, Apical to basal (A to B) transport and B to A transport of ginsenosides using 50 µM, GRb1 was investigated as previously described. The same permeability study was performed using 50 µM GRb2, GRc, GRd, GRg3, GRh2, GF2, CK, PPD, GRe, GRf, GRg1, GRh1, GF1, or PPT.
(§2) For the transport study of ginsenosides in CaCo-2 cells and LLC-PK1-P-gp cells, the ginsenoside transport rate in the A to B or B to A directions was calculated from the slope of the regression line from the mean transported amounts versus time plot. The apparent permeability (Papp) was calculated using Equation (1). (1) Papp (×10^−6 cm/s)=transport rate (nmol/min)/concentration(μM)×area(cm^2)×60s
(§3) The efflux ratio was calculated by dividing the Papp of ginsenosides from the B to A direction by that from the A to B direction.

[3] = Pharmacokinetic study of ginsenosides in healthy humans after repeated oral RGE with or without LAB; assay type: in vivo, human
Procedure: A single-sequence study consisting of two periods was conducted on five healthy male subjects (body weight > 50 kg and age > 19 years) for 29 days. During the first period of the study (RGE treatment group), three pouches of RGE (30 mL, 104.1 mg of total ginsenosides) were administered to 5 subjects once daily for 14 days. On the 14th day, the subjects were admitted to the Clinical Trial Center of KNUH at 7 AM and underwent the last RGE administration at approximately 8–9 AM. Blood samples (approximately 3 mL) were collected at 0, 4, 6, 8, 10, 12, 13, 14, and 24 h after the last dose. A saline-locked angiocatheter was placed on the forearm of each subject’s hand. After discarding 1 mL of blood derived from the catheter, 3 mL of blood was drawn into a vacutainer tube containing heparin and centrifuged at 3000× g for 10 min. The supernatant plasma samples were stored at −80 °C until ginsenoside analysis.
In the second half of the study (RGE + LAB treatment group), 3 pouches of RGE (30 mL, 104.1 mg of total ginsenosides) and 1 pouch of LAB (1 billion CFU/2 g) were co-administered once daily for 14 days. On the […], the subjects were admitted to the Clinical Trial Center of KNUH at 7 AM and received the last red ginseng dose at approximately 8–9 AM. Blood samples (approximately 3 mL) were withdrawn at 0, 4, 6, 8, 10, 12, 13, 14, and 24 h intervals after the last dose and centrifuged at 3000× g for 10 min; the supernatant plasma samples were stored at −80 °C.
Briefly, to analyze GRb1, GRb2, GRc, GRd, GRe, GRf, GRg1, GRg3, GF1, and GF2, 400 μL of an internal standard (IS; 0.05 ng/mL berberine in methanol) was added to 100 μL of plasma. The mixture was vortexed for 15 min and centrifuged at 16,000× g for 5 min. After centrifugation, 400 μL of the supernatant was evaporated using a speed-dry vacuum concentrator (Christ, Osterode am Harz, Germany). The residue was reconstituted using 200 μL of 70% methanol supplemented with 0.1% formic acid, and a 10 μL aliquot was injected into the LC-MS/MS system. Chromatographic separation was performed using a Polar RP column (150 × 2.0 mm, 4.0 μm particle size; Phenomenex, Torrance, CA, USA) using a mobile phase consisting of 0.1% formic acid in water (phase A) and 0.1% formic acid in methanol (phase B). The following elution gradient was used: 69% of phase B for 0–2.0 min, 69–85% of phase B for 2.0–4.0 min, and 85–69% of phase B for 6.0–6.5 min. The flow rate was 0.27 mL/min.
The mixture was vortexed for 10 min and centrifuged at 16,000× g for 5 min. After centrifugation, the samples were frozen at −80 °C for 4 h. The upper layer was transferred to a clean tube and evaporated. The residue was reconstituted using 200 μL of 80% methanol supplemented with 0.1% formic acid, and a 10 μL aliquot was injected into the LC-MS/MS system. Chromatographic separation was performed using a Luna C18 column (150 × 2.0 mm, 3.0 μm particle size; Phenomenex, Torrance, CA, USA) and using a mobile phase consisting of water containing 0.1% formic acid: methanol containing 0.1% formic acid = 8:92 (v/v) at a flow rate of 0.15 mL/min.
The quantification of ginsenosides was carried out using multiple reaction monitoring in positive ionization mode, as previously described.
Finally, pharmacokinetic parameters were calculated using non-compartmental methods (WinNonlin version 5.1; Pharsight Co., Certara, NJ, USA). Statistical analysis was performed by Student’s t-test to compare the two groups using IBM SPSS Statistics for Windows (version 25.0; IBM Corp., Armonk, NY, USA). Differences were considered significant at p < 0.05.

[4] = in rats; cited from earlier work
[5] = system: CaCo-2 cells; assay: Transport (permeability) of ginsenosides in CaCo-2 cell monolayers; assay type: in vitro ADME; details: Caco-2
Procedure: as §1, §2, §3

[6] = target: T1, P-gp (Homo sapiens, UniProt P08183); assay: Transport of ginsenosides in P-gp-overexpressing LLC-PK1-P-gp cells; assay type: in vitro ADME
T1 construct: host or cells: LLC-PK1-P-gp cells (passage no. 25–28)
Procedure: LLC-PK1-P-gp cells (passage no. 25–28) were seeded onto collagen-coated permeable support (1.0 μm pore size) in 24-well plates at a density of 2.5 × 10^4 cells/insert and grown for 5 days with TEER values of over 500 Ω·cm^2 [24]. The A to B transport and B to A transport of GRg3, GRh2, CK, PPD, GRg1, GRh1, and PPT (20 μM each) were measured as previously described. The concentration dependency in the B to A transport of GRh2, CK, PPD, and PPT was measured in the range of 6.25–200 μM for GRh2, CK, PPD, and PPT.
as §2, §3
To measure the kinetic parameters of the concentration dependence on the P-gp-mediated ginsenoside efflux, the ginsenoside transport rate in the B to A direction (ν) versus the ginsenoside concentration (S) plot was fitted in the Michaelis–Menten Equation (2) using Sigma Plot (version 12.0, Systat Software Inc. Chicago, IL, USA). (2) ν=Vmax×S/Km+S

[7] = RGE incubated with LAB (1 billion CFU) for 7 days at 37 °C, result in words
[8] = CaCo-2 cell monolayers, 50 µM ginsenoside, read-out: A to B Papp

T1 sequence (P08183 whole entry): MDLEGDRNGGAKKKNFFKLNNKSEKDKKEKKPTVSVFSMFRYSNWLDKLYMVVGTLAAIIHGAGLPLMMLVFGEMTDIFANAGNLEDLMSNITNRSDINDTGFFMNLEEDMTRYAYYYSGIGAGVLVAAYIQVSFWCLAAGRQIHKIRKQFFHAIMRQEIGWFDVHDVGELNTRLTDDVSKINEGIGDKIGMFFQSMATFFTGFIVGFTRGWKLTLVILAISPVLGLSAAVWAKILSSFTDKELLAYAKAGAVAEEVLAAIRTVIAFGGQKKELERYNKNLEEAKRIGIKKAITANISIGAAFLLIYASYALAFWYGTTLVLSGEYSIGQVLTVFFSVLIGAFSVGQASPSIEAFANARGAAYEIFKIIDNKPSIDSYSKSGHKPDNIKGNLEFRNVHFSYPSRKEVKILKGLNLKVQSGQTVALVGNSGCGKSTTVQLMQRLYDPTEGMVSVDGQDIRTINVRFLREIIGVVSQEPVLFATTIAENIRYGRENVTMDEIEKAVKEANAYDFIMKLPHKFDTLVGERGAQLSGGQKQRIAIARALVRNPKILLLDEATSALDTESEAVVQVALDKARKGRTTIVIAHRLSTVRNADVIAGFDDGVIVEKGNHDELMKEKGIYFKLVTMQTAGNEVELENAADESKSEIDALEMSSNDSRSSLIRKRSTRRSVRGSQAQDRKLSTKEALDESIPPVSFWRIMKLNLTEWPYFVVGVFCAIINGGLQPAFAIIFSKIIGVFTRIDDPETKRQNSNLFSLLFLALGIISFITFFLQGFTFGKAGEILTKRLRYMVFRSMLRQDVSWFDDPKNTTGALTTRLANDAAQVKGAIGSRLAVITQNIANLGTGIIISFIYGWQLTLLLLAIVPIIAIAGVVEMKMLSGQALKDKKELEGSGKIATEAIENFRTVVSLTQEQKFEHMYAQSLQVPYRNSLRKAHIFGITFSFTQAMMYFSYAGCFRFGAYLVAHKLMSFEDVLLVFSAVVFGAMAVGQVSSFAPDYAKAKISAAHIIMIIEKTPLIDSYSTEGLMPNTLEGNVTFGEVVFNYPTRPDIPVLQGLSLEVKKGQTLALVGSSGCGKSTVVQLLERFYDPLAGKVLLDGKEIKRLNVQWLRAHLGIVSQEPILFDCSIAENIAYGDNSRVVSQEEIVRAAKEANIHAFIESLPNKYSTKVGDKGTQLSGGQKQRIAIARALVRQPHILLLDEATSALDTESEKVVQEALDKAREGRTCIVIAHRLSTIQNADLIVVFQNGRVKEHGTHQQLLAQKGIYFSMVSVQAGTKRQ

Row | Structure (SMILES) | Relative abundance / metabolic activity following fermentation of RGE with LAB [1, 7] | Papp A→B at 50 µM [2, 8] | Relative abundance / metabolic activity following fermentation of RGE with LAB [1] | Cmax ([3]; human, in vivo, po) | MRT ([3]; human, in vivo, po) | Tmax ([3]; human, in vivo, po) | AUC ([3]; human, in vivo, po, 104.1 mg) | A to B Papp [5] | other results
1 | CC(C)=CCCC(C)(OC1OC(CO)C(O)C(O)C1O)C1CCC2(C)C1C(O)CC1C3(C)CCC(O)C(C)(C)C3C(O)CC12C (centres unmarked) [GF1] | remained unchanged |  |  |  |  |  |  |  | Papp A→B at 50 µM ([2]; Caco-2): < 0.3 ×10⁻⁶ cm/s
2 | CC(C)=CCC[C@](C)(O[C@@H]1O[C@H](CO[C@@H]2O[C@H](CO)[C@@H](O)[C@H](O)[C@H]2O)[C@@H](O)[C@H](O)[C@H]1O)[C@H]1CC[C@]2(C)[C@@H]1[C@H](O)C[C@@H]1[C@@]3(C)CC[C@H](O[C@@H]4O[C@H](CO)[C@@H](O)[C@H](O)[C@H]4O[C@@H]4O[C@H](CO)[C@@H](O)[C@H](O)[C@H]4O)C(C)(C)[C@@H]3CC[C@]12C [GRb1, ginsenoside Rb1] | marked decrease | < 0.3 ×10⁻⁶ cm/s |  |  |  |  |  |  | Change of AUC / pharmacokinetic parameters by RGE and LAB co-administration ([3]; RGE + LAB group versus RGE group, humans, result in words): not different; Cmax ([3]; male, human, plasma, po, 104.1 mg total ginsenosides/day, RGE group, human plasma, RGE oral 14 days, mean ± SD, n = 5, read-out: Cmax): 7.1 ± 3.2 ng/mL; MRT ([3]; male, human, plasma, po, 104.1 mg total ginsenosides/day, RGE group, human plasma, RGE oral 14 days, mean ± SD, n = 5, read-out: MRT): 18.3 ± 1.1 h; Tmax ([3]; male, human, plasma, po, 104.1 mg total ginsenosides/day, RGE group, human plasma, RGE oral 14 days, mean ± SD, n = 5, read-out: Tmax): 5.3 ± 4.6 h; Cmax ([3]; male, human, plasma, po, RGE + LAB group, human plasma, oral 14 days, mean ± SD, n = 5, read-out: Cmax): 6.2 ± 2.9 ng/mL; MRT ([3]; male, human, plasma, po, RGE + LAB group, human plasma, oral 14 days, mean ± SD, n = 5, read-out: MRT): 16.9 ± 0.5 h; Tmax ([3]; male, human, plasma, po, RGE + LAB group, human plasma, oral 14 days, mean ± SD, n = 5, read-out: Tmax): 6.8 ± 1.1 h; AUC ([3]; male, RGE + LAB group, human plasma, RGE plus LAB (1 billion CFU/2 g) once daily oral 14 days, AUC 0 to 24 h, mean ± SD, n = 5, read-out: AUC): 164 ± 77.3 ng·h/mL; AUC ([3]; male, RGE group, human plasma, RGE once daily oral 14 days (104.1 mg total ginsenosides/day), AUC 0 to 24 h, mean ± SD, n = 5, read-out: AUC): 185 ± 80.6 ng·h/mL; Oral bioavailability (BA) [4]: less than 5%
3 | CC(C)=CCC[C@](C)(O[C@@H]1O[C@H](CO[C@@H]2O[C@@H](CO)[C@H](O)[C@H]2O)[C@@H](O)[C@H](O)[C@H]1O)[C@H]1CC[C@]2(C)[C@@H]1[C@H](O)C[C@@H]1[C@@]3(C)CC[C@H](O[C@@H]4O[C@H](CO)[C@@H](O)[C@H](O)[C@H]4O[C@@H]4O[C@H](CO)[C@@H](O)[C@H](O)[C@H]4O)C(C)(C)[C@@H]3CC[C@]12C [GRc] |  |  | marked decrease | 5.1 ± 2.4 ng/mL | 18.0 ± 1.2 h | 6.2 ± 4.0 h | 118.4 ± 58.2 ng·h/mL | below 0.3 × 10^−6 cm/s | 
4 | CC(C)=CCC[C@](C)(O[C@@H]1O[C@H](CO)[C@@H](O)[C@H](O)[C@H]1O)[C@H]1CC[C@]2(C)[C@@H]1[C@H](O)C[C@@H]1[C@@]3(C)CC[C@H](O)C(C)(C)[C@@H]3[C@@H](O[C@@H]3O[C@H](CO)[C@@H](O)[C@H](O)[C@H]3O[C@@H]3O[C@@H](C)[C@H](O)[C@@H](O)[C@H]3O)C[C@]12C [GRe] |  |  | marked decrease |  |  |  |  | below 0.3 × 10^−6 cm/s | 
5 | CC(C)=CCC[C@](C)(O)[C@H]1CC[C@]2(C)[C@@H]1[C@H](O)C[C@@H]1[C@@]3(C)CC[C@H](O[C@@H]4O[C@H](CO)[C@@H](O)[C@H](O)[C@H]4O[C@@H]4O[C@H](CO)[C@@H](O)[C@H](O)[C@H]4O)C(C)(C)[C@@H]3CC[C@]12C [GRg3] |  |  | remained unchanged | 7.2 ± 4.8 ng/mL | 7.6 ± 2.8 h | 7.2 ± 3.0 h | 94.1 ± 50.0 ng·h/mL | below 0.3 × 10^−6 cm/s | A to B permeability ([6]; LLC-PK1): 0.07±0.01 × 10^−6 cm/s; B to A permeability ([6]; LLC-PK1): 0.07±0.01 × 10^−6 cm/s
6 | CC(C)=CCCC(C)(O)C1CCC2(C)C1C(O)CC1C3(C)CCC(O)C(C)(C)C3C(OC3OC(CO)C(O)C(O)C3O)CC12C (centres unmarked) [GRh1] | significantly increased | < 0.3 ×10⁻⁶ cm/s |  |  |  |  |  |  | efflux ratio at 20 μM ([6]; pig, LLC-PK1, LLC-PK1-P-gp cells, 20 μM, B to A Papp divided by A to B Papp, read-out: ER): 0.9; Papp A→B at 20 μM ([6]; pig, LLC-PK1-P-gp cells, 20 μM, mean ± SD, n = 3, read-out: A to B permeability): 0.21 ± 0.09 ×10⁻⁶ cm/s; Papp B→A at 20 μM ([6]; pig, LLC-PK1-P-gp cells, 20 μM, mean ± SD, n = 3, read-out: B to A permeability): 0.18 ± 0.01 ×10⁻⁶ cm/s
